Earlier results as cited in patent US20010039262A1, “Methods and compositions for the treatment of cardiac indications” (priority 2000, published 2001).

What was measured:
[1] = test system: patients with severe HF; conditions: spironolactone administered along with captopril and furosemide
[2] = test system: patients with stable Congestive Heart Failure (NYHA class II-IV)
[3] = heart failure patients treated with spironolactone

SMILES: CC(=O)S[C@@H]1CC2=CC(=O)CC[C@]2(C)[C@H]2CC[C@@]3(C)[C@@H](CC[C@@]34CCC(=O)O4)[C@H]12 [spironolactone]
- reduction of morbidity and mortality [1]: 27%
- morbidity ([2]; 31 patients with stable CHF (NYHA class II-IV), spironolactone vs placebo in addition to diuretics and ACE inhibitor): lowered
- early morning rise in heart rate [2, 3]: reduced
- heart rate variability [2, 3]: improved
- vascular collagen turnover [2, 3]: reduced
- reduction in myocardial fibrosis activity ([2]; spironolactone 50-100 mg/day in addition to diuretics and ACE inhibitor, 8 weeks of active therapy): approximately 20%
